The assay concerns the target human A2A receptor (A2AR) (Homo sapiens (Human), UniProt P29274). Nature of the assay: Luciferase reporter assay (HEK293-A2AR-luc2p/CRE/Hygro cells). The format is cell-based. Particulars: 3 nM CGS21680, 5 h incubation. The method, then:
HEK293 cells were maintained in Dulbecco's modified Eagle's medium (DMEM, Gibco) supplemented with 10% fetal bovine serum (FBS, Thermo Scientific), 100 units/mL penicillin (Gibco), and 0.1 mg/mL streptomycin (Gibco) in a humidified 37° C. environment with 5% CO2. Plasmid encoding wild-type human A2A receptor (A2AR) (in pcDNA3.1) was synthesized by Genscript (Nanjing, China). Transfection of the plasmids was performed in 6-well plates with 4×10^5 cells using Lipofectamin 2000 (ThermoFisher Scientific) according to the instruction of the manufacturer. Cell clones that stably express A2AR were established and maintained in the same complete medium as the HEK293 cells in addition of G-418 (Gibico). Expression level of A2AR in each single cell clone was determined using immunoblotting and FACS method. HEK293-A2AR stable cells were then transfected with pGL4.29[luc2P/CRE/Hygro] (Promega) luciferase reporter plasmid for establishing the HEK293-A2AR-luc2p/CRE/Hygro stable cell line.
HEK293-A2AR-luc2p/CRE/Hygro cells were seeded at a density of 5,000 cells/well in DMEM with 1% FBS and 1 U/mL adenosine deaminase (ADA) (Sigma). After 18 h, the cells were treated with 3 nM CGS21680 plus a series dilution of A2AR antagonist, the compounds disclosed herein at the concentration of 0.1˜10000 nM, prepared in DMEM with 1% FBS. After 5 h incubation, the luciferase activity in cells were measured using the Bright-Glo Luciferase Assay System (Promega) according to manufacturer's instructions. The luminescence signal was measured using a PHERAstar FS plate reader (BMG Labtech). […] Maximal luminescence intensity was determined in the presence of 3 nM CGS21680 and was set as 100%. The IC50 value was calculated from a dose dependent inhibition curve across the range of compound concentrations.
(Reporter assays use an easily measured gene product as a stand-in for the process of interest.)

Chain of human A2A receptor (A2AR) (P29274 whole entry): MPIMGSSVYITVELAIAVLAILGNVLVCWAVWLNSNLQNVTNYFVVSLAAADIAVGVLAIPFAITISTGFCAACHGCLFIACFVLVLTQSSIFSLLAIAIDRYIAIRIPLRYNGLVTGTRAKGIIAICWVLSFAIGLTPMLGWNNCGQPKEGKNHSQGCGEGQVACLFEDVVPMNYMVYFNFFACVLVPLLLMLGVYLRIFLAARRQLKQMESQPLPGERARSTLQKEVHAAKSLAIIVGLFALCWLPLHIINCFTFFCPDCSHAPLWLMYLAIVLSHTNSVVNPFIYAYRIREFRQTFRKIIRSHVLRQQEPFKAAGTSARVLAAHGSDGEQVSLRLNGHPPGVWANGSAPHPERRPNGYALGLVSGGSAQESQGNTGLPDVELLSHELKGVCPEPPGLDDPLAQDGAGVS

By IC50 is commonly meant the point on the concentration scale where inhibition reaches its midpoint. A high value points to lower potency. In turn, `Cc1cccc(CNC(=O)C(c2ccccc2)n2ncc3c2nc(N)n2nc(-c4ccco4)nc32)c1` (stereo not shown) [Example 23, 2-(5-amino-2-(furan-2-yl)-7H-pyrazolo[4,3-e][1,2,4]triazolo[1,5-c]pyrimidin-7-yl)-N-(3-methylbenzyl)-2-phenylacetamide] gave an IC50 of 1.9 nM.
As for `CC(C(=O)NCC1(O)CCCCC1)(c1ccccc1)n1ncc2c1nc(N)n1nc(-c3ccco3)nc21` (stereo not shown) [Example 72, 2-(5-amino-2-(furan-2-yl)-7H-pyrazolo[4,3-e][1,2,4]triazolo[1,5-c]pyrimidin-7-yl)-N-((1-hydroxycyclohexyl)methyl)-2-phenylpropanamide], the figure is 7.8 nM; as for `CC(C(=O)NCC1(O)CC1)(c1ccccc1)n1ncc2c1nc(N)n1nc(-c3ccco3)nc21` (stereo not shown) [Example 88, 2-(5-amino-2-(furan-2-yl)-7H-pyrazolo[4,3-e][1,2,4]triazolo[1,5-c]pyrimidin-7-yl)-N-((1-hydroxycyclopropyl)methyl)-2-phenylpropanamide], 437 nM.
`CCCC(C(=O)NCc1ccccc1OC)n1ncc2c1nc(N)n1nc(-c3ccco3)nc21` (stereo not shown) [Example 21, 2-(5-amino-2-(furan-2-yl)-7H-pyrazolo[4,3-e][1,2,4]triazolo[1,5-c]pyrimidin-7-yl)-N-(2-methoxybenzyl)pentanamide]: the IC50 was determined as 15.3 nM.
As for `C[C@](C(=O)NCCC1CCC(O)CC1)(c1ccccc1)n1ncc2c1nc(N)n1nc(-c3ccco3)nc21` (stereo partly drawn) [Example 149B, (R)-2-(5-amino-2-(furan-2-yl)-7H-pyrazolo[4,3-e][1,2,4]triazolo[1,5-c]pyrimidin-7-yl)-N-(2-(4-hydroxycyclohexyl)ethyl)-2-phenylpropanamide], the figure is 1.7 nM.
In turn, `Nc1nc2c(cnn2C(C(=O)NC2CCc3ccccc32)c2ccccc2)c2nc(-c3ccco3)nn12` (stereo not shown) [Example 14, 2-(5-amino-2-(furan-2-yl)-7H-pyrazolo[4,3-e][1,2,4]triazolo[1,5-c]pyrimidin-7-yl)-N-(2,3-dihydro-1H-inden-1-yl)-2-phenylacetamide] yielded an IC50 of 6.1 nM.
As for `CC(C(=O)N[C@H]1CC[C@](C)(O)CC1)(c1ccccc1)n1ncc2c1nc(N)n1nc(-c3ccco3)nc21` (stereo partly drawn) [Example 69, 2-(5-amino-2-(furan-2-yl)-7H-pyrazolo[4,3-e][1,2,4]triazolo[1,5-c]pyrimidin-7-yl)-(cis)-N-(4-hydroxy-4-methylcyclohexyl)-2-phenylpropanamide], the figure is 10.5 nM; as for `Nc1nc2c(cnn2C(C(=O)NCc2ccccc2F)c2ccccc2)c2nc(-c3ccco3)nn12` (stereo not shown) [Example 7, 2-(5-amino-2-(furan-2-yl)-7H-pyrazolo[4,3-e][1,2,4]triazolo[1,5-c]pyrimidin-7-yl)-N-(2-fluorobenzyl)-2-phenylacetamide], 1.5 nM.
Molecule `Cc1ccc(CNC(=O)[C@@](C)(c2ccccc2)n2ncc3c2nc(N)n2nc(-c4ccco4)nc32)nc1` [Example 109B, (R)-2-(5-amino-2-(furan-2-yl)-7H-pyrazolo[4,3-e][1,2,4]triazolo[1,5-c]pyrimidin-7-yl)-N-((5-methylpyridin-2-yl)methyl)-2-phenylpropanamide] came in with an IC50 of 0.7 nM.
In the case of `CC(C(=O)N[C@H]1COC[C@@H]1O)(c1ccccc1)n1ncc2c1nc(N)n1nc(-c3ccco3)nc21` (stereo partly drawn) [Example 106, 2-(5-amino-2-(furan-2-yl)-7H-pyrazolo[4,3-e][1,2,4]triazolo[1,5-c]pyrimidin-7-yl)-N-((3S,4R)-4-hydroxytetrahydrofuran-3-yl)-2-phenylpropanamide], the IC50 stood at 50.9 nM.
The molecule `CC(C(=O)NCc1cccc(F)n1)(c1ccccc1)n1ncc2c1nc(N)n1nc(-c3ccco3)nc21` (stereo not shown) [Example 116, 2-(5-amino-2-(furan-2-yl)-7H-pyrazolo[4,3-e][1,2,4]triazolo[1,5-c]pyrimidin-7-yl)-N-((6-fluoropyridin-2-yl)methyl)-2-phenylpropanamide] came in with an IC50 of 2.2 nM.
The molecule `C[C@](C(=O)N[C@@H]1CCCC[C@@H]1O)(c1ccccc1)n1ncc2c1nc(N)n1nc(-c3ccco3)nc21` [Example 58B, (R)-2-(5-amino-2-(furan-2-yl)-7H-pyrazolo[4,3-e][1,2,4]triazolo[1,5-c]pyrimidin-7-yl)-N-((1R,2S)-2-hydroxycyclohexyl)-2-phenylpropanamide] showed an IC50 of 1.3 nM.
As for `Cc1nccnc1-c1nc2c3cnn(C(C)(C(=O)NCC4(O)COC4)c4ccccc4)c3nc(N)n2n1` (stereo not shown) [Example 78, 2-(5-amino-2-(3-methylpyrazin-2-yl)-7H-pyrazolo[4,3-e][1,2,4]triazolo[1,5-c]pyrimidin-7-yl)-N-((3-hydroxyoxetan-3-yl)methyl)-2-phenylpropanamide], the figure is 83.3 nM.
Turning to `COc1ccc(CNC(=O)[C@@](C)(c2ccccc2)n2ncc3c2nc(N)n2nc(-c4ccco4)nc32)nc1` [Example 113B, (R)-2-(5-amino-2-(furan-2-yl)-7H-pyrazolo[4,3-e][1,2,4]triazolo[1,5-c]pyrimidin-7-yl)-N-((5-methoxypyridin-2-yl)methyl)-2-phenylpropanamide], the IC50 was 0.9 nM.
The same measure for `Nc1nc2c(cnn2C(C(=O)N[C@H]2CC[C@@H](O)CC2)c2ccccc2)c2nc(-c3ccco3)nn12` (mixture of isomers) [Example 92, 2-(5-amino-2-(furan-2-yl)-7H-pyrazolo[4,3-e][1,2,4]triazolo[1,5-c]pyrimidin-7-yl)-(cis)-N-(4-hydroxycyclohexyl)-2-phenylacetamide]: 12.4 nM; for `CC(C(=O)N[C@@H]1CCCOC1)(c1ccccc1)n1ncc2c1nc(N)n1nc(-c3ccco3)nc21` (stereo partly drawn) [Example 60, 2-(5-amino-2-(furan-2-yl)-7H-pyrazolo[4,3-e][1,2,4]triazolo[1,5-c]pyrimidin-7-yl)-2-phenyl-N—((R)-tetrahydro-2H-pyran-3-yl)propanamide]: 8.2 nM; for `COCCOc1ccc(N2CCC(NC(=O)C(C)(c3ccccc3)n3ncc4c3nc(N)n3nc(-c5ccco5)nc43)CC2)cc1` (stereo not shown) [Example 46, 2-(5-amino-2-(furan-2-yl)-7H-pyrazolo[4,3-e][1,2,4]triazolo[1,5-c]pyrimidin-7-yl)-N-(1-(4-(2-methoxyethoxy)phenyl)piperidin-4-yl)-2-phenylpropanamide]: 10.9 nM.
As for `CC(C(=O)NCCN1CCOCC1)(c1ccccc1)n1ncc2c1nc(N)n1nc(-c3ccco3)nc21` (stereo not shown) [Example 41, 2-(5-amino-2-(furan-2-yl)-7H-pyrazolo[4,3-e][1,2,4]triazolo[1,5-c]pyrimidin-7-yl)-N-(2-morpholinoethyl)-2-phenylpropanamide], the figure is 9.3 nM; as for `C[C@H](NC(=O)C(c1ccccc1)n1ncc2c1nc(N)n1nc(-c3ccco3)nc21)c1ccccc1` (stereo partly drawn) [Example 9, 2-(5-amino-2-(furan-2-yl)-7H-pyrazolo[4,3-e][1,2,4]triazolo[1,5-c]pyrimidin-7-yl)-2-phenyl-N—((S)-1-phenylethy)acetamide], 31.9 nM.
As for `COc1ccnc(CNC(=O)[C@@](C)(c2ccccc2)n2ncc3c2nc(N)n2nc(-c4ccco4)nc32)c1` [Example 114B, (R)-2-(5-amino-2-(furan-2-yl)-7H-pyrazolo[4,3-e][1,2,4]triazolo[1,5-c]pyrimidin-7-yl)-N-((4-methoxypyridin-2-yl)methyl)-2-phenylpropanamide], the figure is 4.6 nM; as for `Cc1ccc(CNC(=O)C(C)(c2ccccc2)n2ncc3c2nc(N)n2nc(-c4ccco4)nc32)nc1` (stereo not shown) [Example 109, 2-(5-amino-2-(furan-2-yl)-7H-pyrazolo[4,3-e][1,2,4]triazolo[1,5-c]pyrimidin-7-yl)-N-((5-methylpyridin-2-yl)methyl)-2-phenylpropanamide], 1 nM.
Molecule `C[C@@H](NC(=O)C(c1ccccc1)n1ncc2c1nc(N)n1nc(-c3ccco3)nc21)c1ccccc1` (stereo partly drawn) [Example 10, 2-(5-amino-2-(furan-2-yl)-7H-pyrazolo[4,3-e][1,2,4]triazolo[1,5-c]pyrimidin-7-yl)-2-phenyl-N—((R)-1-phenylethyl)acetamide] returned a half-inhibitory concentration (IC50) of 16.5 nM.
Regarding `Nc1nc2c(cnn2C(C(=O)NC2CCCCC2)c2ccccc2)c2nc(-c3ccco3)nn12` (stereo not shown) [Example 2, 2-(5-amino-2-(furan-2-yl)-7H-pyrazolo[4,3-e][1,2,4]triazolo[1,5-c]pyrimidin-7-yl)-N-cyclohexyl-2-phenylacetamide], 11.9 nM corresponded to half-maximal inhibition (IC50).
As for `CC(C(=O)NCc1ccc(F)cn1)(c1ccccc1)n1ncc2c1nc(N)n1nc(-c3ccco3)nc21` (stereo not shown) [Example 117, 2-(5-amino-2-(furan-2-yl)-7H-pyrazolo[4,3-e][1,2,4]triazolo[1,5-c]pyrimidin-7-yl)-N-((5-fluoropyridin-2-yl)methyl)-2-phenylpropanamide], the figure is 3.4 nM; as for `CNCCNC(=O)C(C)(c1ccccc1)n1ncc2c1nc(N)n1nc(-c3ccco3)nc21` (stereo not shown) [Example 81, 2-(5-amino-2-(furan-2-yl)-7H-pyrazolo[4,3-e][1,2,4]triazolo[1,5-c]pyrimidin-7-yl)-N-(2-(methylamino)ethyl)-2-phenylpropanamide], 120 nM.

These data come from patent US11472811B2, “Pyrazolotriazolopyrimidine derivatives as A2A receptor antagonist” (BEIGENE, LTD., priority 2018, dated 2022).
